# Experimental data reported in US20070213340A1, “Farnesyl protein transferase inhibitors” (priority 2006, published 2007).
# Biological target: farnesyl protein transferase (Homo sapiens, UniProt P49354+P49356)
# Assay: FPT IC50 (inhibition of farnesyl protein transferase, in vitro enzyme assay)
# Type: biochemical
# Conditions: procedure of WO 95/10516
# Method: FPT IC50 (inhibition of farnesyl protein transferase, in vitro enzyme assay) was determined, and COS Cell IC50 (Cell-Based Assay) could be determined following the assay procedures described in WO 95/10516, published Apr. 20, 1995. GGPT IC50 (inhibition of geranylgeranyl protein transferase, in vitro enzyme assay), Cell Mat Assay, and anti-tumor activity (in vivo anti-tumor studies) could be determined by the assay procedures described in WO 95/10516. The disclosure of WO 95/10516 is incorporated herein by reference thereto.
row,IC50 [nM],Structure (SMILES)
1,5.2,"CCOC(=O)CCCNC(=O)[C@H]1CN(C(=O)OC(C)(C)C)CCN1C1c2ccc(Cl)cc2CCc2cccnc21 (single isomer, unassigned) [compound 6, 4-(8-Chloro-6,11-dihydro-5H-benzo[5,6]cyclohepta[1,2-b]pyridin-11-yl)-3R-(3-ethoxycarbonyl-propylcarbamoyl)-piperazine-1-carboxylic acid tert-butyl ester]"
2,5.5,"CCOC(=O)CCCNC(=O)[C@H]1CN(C(=O)OC(C)(C)C)CCN1C1c2ccc(Cl)cc2CCc2cccnc21 (single isomer, unassigned) [compound 7, 4-(8-Chloro-6,11-dihydro-5H-benzo[5,6]cyclohepta[1,2-b]pyridin-11-yl)-3R-(3-ethoxycarbonyl-propylcarbamoyl)-piperazine-1-carboxylic acid tert-butyl ester]"
3,5.5,"CC(C)(C)OC(=O)N1CCN(C2c3ccc(Cl)cc3CCc3cccnc32)[C@@H](C(=O)NCCCC(=O)O)C1 (single isomer, unassigned) [compound 8, 3R-(3-Carboxy-propylcarbamoyl)-4-(8-chloro-6,11-dihydro-5H-benzo[5,6]cyclohepta[1,2-b]pyridin-11-yl)-piperazine-1-carboxylic acid tert-butyl ester]"
4,6.3,"CC(C)(C)OC(=O)N1CCN(C2c3ccc(Cl)cc3CCc3cccnc32)[C@@H](C(=O)NCCCC(=O)O)C1 (single isomer, unassigned) [compound 9, 3R-(3-Carboxy-propylcarbamoyl)-4-(8-chloro-6,11-dihydro-5H-benzo[5,6]cyclohepta[1,2-b]pyridin-11-yl)-piperazine-1-carboxylic acid tert-butyl ester]"
5,1.2,"CC(C)(C)OC(=O)N1CCN(C2c3ccc(Cl)cc3CCc3cccnc32)[C@@H](C(=O)NCCCn2ccnc2)C1 (stereo partly drawn) [Compound 12, 4-(8-Chloro-6,11-dihydro-5H-benzo[5,6]cyclohepta[1,2-b]pyridin-11-yl)-3R-(3-imidazol-1-yl-propylcarbamoyl)-piperazine-1-carboxylic acid tert-butyl ester]"
